{"source": "patent US20230101687A1", "about": "“SYNTHETIC TISSUE BARRIERS AND USES THEREOF” (Massachusetts Institute of Technology, priority 2019, published 2023)", "key": {"CAT": {"molecular_target": "CAT (Homo sapiens, UniProt P04040)", "sequence (P04040 2-527 limits assumed)": "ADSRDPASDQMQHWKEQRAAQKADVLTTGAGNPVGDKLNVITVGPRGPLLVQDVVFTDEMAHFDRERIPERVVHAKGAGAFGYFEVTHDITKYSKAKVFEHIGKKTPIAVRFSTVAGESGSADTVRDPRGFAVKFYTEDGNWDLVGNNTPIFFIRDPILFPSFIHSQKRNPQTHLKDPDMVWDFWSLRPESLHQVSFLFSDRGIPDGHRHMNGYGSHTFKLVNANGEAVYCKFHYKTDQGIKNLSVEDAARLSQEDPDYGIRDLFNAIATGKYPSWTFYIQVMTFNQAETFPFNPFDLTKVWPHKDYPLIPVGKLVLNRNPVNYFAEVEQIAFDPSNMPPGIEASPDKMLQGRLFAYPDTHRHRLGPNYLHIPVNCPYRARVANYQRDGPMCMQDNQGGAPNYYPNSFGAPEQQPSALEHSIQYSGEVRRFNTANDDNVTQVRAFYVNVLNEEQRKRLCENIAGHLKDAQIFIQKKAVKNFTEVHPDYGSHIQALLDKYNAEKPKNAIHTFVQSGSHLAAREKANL", "experimental": "To confirm the reliability of the porcine-based TPA-positive tissue map described above for potential human trials, fresh resected tissue specimens from humans were tested for compatibility with TPA technology. Similar to the porcine TPA-map study, human tissue specimens were incubated with the TPA solution containing M1, and subsequently CAT-accelerated chromogenic M1 assembly was characterized."}, "[1]": {"molecular_target": "endogenous catalase (CAT) (Sus scrofa, UniProt O62839)", "sequence (O62839 2-527 limits assumed)": "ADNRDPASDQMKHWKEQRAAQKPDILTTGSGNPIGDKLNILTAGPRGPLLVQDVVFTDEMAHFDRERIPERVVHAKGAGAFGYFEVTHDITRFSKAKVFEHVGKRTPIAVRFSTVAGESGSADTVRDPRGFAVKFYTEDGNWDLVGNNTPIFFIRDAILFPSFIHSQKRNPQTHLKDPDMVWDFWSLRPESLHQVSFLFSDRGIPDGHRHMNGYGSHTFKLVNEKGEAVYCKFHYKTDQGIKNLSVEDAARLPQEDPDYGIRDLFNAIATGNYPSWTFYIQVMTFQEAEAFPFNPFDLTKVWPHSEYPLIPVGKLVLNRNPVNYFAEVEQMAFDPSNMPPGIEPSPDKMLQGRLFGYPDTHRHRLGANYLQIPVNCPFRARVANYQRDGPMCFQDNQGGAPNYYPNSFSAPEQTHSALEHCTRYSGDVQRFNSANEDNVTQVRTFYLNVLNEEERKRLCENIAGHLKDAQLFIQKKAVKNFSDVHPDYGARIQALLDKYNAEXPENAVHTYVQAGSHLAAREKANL", "settings": "of 35 porcine tissue sites"}}}
{"smiles": "NCCc1ccc(O)c(O)c1", "note": "[Monomer M1, dopamine]", "values": [{"measurement": "time to 95% completion of M1 assembly formation", "setting": "CAT; all human tissue types tested", "result": "4 to 23", "unit": "min"}, {"measurement": "adhesion of assemblies on human tissues", "setting": "CAT; cartilage, buccal, tongue, blood", "result": "stably adhered M1 assemblies were observed"}, {"measurement": "tissue sites with no obvious PDA signal increase", "setting": "[1]", "result": 9, "unit": "tissue sites"}, {"measurement": "tissue sites with significantly increased PDA levels (P<0.05)", "setting": "[1]; dopamine plus hydrogen peroxide", "result": 26, "unit": "tissue sites"}]}
